What follows are molecules tested against T1, human CXCR3 (N-delta 4) (Homo sapiens, UniProt P49682) (assay: Human CXCR3 (N-delta 4) Scintillation Proximity Assay (SPA), [125I] IP-10 binding). Settings: IC50 rating; [125I] IP-10 displacement, Ba/F3-hCXCR3 (N-delta 4) membranes.
T1 construct: CD8 leader (N); Flag tag; expressed in transfected cells; membranes
T1 sequence (P49682 5-368 limits assumed): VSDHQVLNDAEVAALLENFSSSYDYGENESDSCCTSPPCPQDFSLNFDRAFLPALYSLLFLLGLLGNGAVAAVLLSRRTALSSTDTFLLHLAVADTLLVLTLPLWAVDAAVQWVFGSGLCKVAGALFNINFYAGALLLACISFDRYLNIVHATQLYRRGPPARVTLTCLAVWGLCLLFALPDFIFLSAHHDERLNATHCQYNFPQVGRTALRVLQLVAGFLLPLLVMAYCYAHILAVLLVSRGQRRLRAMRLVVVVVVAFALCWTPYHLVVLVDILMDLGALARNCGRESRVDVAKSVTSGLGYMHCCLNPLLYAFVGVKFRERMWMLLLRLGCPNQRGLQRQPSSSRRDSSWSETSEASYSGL
Text: The inventive compounds can readily be evaluated to determine activity at The CXCR3 receptors by known methods, such as, for example, Development of Human CXCR3 (N-delta 4) Binding Assay.
Cloning and Expression of Human CXCR3 (N-Delta 4):
The DNA encoding human CXCR3 was cloned by PCR using human genomic DNA (Promega, Madison, Wis.) as a template. The PCR primers were designed based on the published sequence of human orphan receptor GPR9 (1) with incorporated restriction sites, a Kozak consensus sequence, CD8 leader and Flag tag. The PCR product was subcloned into the mammalian expression vector pME18Sneo, a derivative of the SR-alpha expression vector (designated as pME18Sneo-hCXCR3 (N-delta 4).
IL-3-dependent mouse pro-B cells Ba/F3 were transfected by electroporation in 0.4 ml Dulbecco's PBS containing 4×10^6 cells with 20 μg of pME18Sneo-hCXCR3 (N-delta 4) plasmid DNA. Cells were pulsed at 400 Volts, 100 OHMs, 960 μFd. The transfected cells were under selection with 1 mg/ml G418 (Life Technologies, Gaithersburg, Md.). G418-resistant Ba/F3 clones were screened for CXCR3 expression by specific binding of [^125I] IP-10 (NEN Life Science Products, Boston, Mass.).
Preparation of Ba/F3-hCXCR3 (N-Delta 4) Membranes
Ba/F3 cells expressing human CXCR3 (N-delta 4) were pelleted and resuspended in the lysis buffer containing 10 mM HEPES, pH 7.5 and Complete® protease inhibitors (1 tablet per 100 ml) (Boehringer Mannheim, Indianapolis, Ind.) at a cell density of 20×10^6 cells per ml. After 5 minutes incubation on ice, cells were transferred to 4639 cell disruption bomb (Parr Instrument, Moline, Ill.) and applied with 1,500 psi of nitrogen for 30 minutes on ice. Large cellular debris was removed by centrifugation at 1,000× g. Cell membrane in the supernatant was sedimented at 100,000× g. The membrane was resuspended in the lysis buffer supplemented with 10% sucrose and stored at −80° C. Total protein concentration of the membrane was determined by BCA method from Pierce (Rockford, Ill.).
Human CXCR3 (N-Delta 4) Scintillation Proximity Assay (SPA)
For each assay point, 2 μg of membrane was preincubated for 1 hr with 300 μg wheat germ agglutinin (WGA) coated SPA beads (Amersham, Arlington Heights, Ill.) in the binding buffer (50 mM HEPES, 1 mM CaCl2, 5 mM MgCl2, 125 mM NaCl, 0.002% NaN3, 1.0% BSA) at room temperature. The beads were spun down, washed once, resuspended in the binding buffer and transferred to a 96-well Isoplate (Wallac, Gaithersburg, Md.). 25 pM of [^125I] IP-10 with tested compounds in a series of titration were added to start the reaction. After 3 hr reaction at room temperature, the amount of [^125I] IP-10 bound to the SPA beads was determined with a Wallac 1450 Microbeta counter.

Compound	IC50
CC[C@H]1CN(c2ncc(-c3ncc[nH]3)cc2Cl)CCN1C1CCN(C(=O)c2ccc(OC(F)(F)F)cc2)CC1 [Compound 126]	25 to 100 nM
CC[C@H]1CN(c2ncc(C3=NCCN3)cc2Cl)CCN1C1CCN(Cc2ccc(C3CC3C(C)(C)O)cc2)CC1 (stereo partly shown) [Compound 152]	> 100 nM
CC[C@H]1CN(c2ncc(C3=NCCCN3)cc2Cl)CCN1C1CCN(C(=O)c2ccc(Cl)cc2)CC1 [Compound 118]	25 to 100 nM
CC[C@H]1CN(c2ncc(-c3ncc[nH]3)cc2Cl)CCN1C1CCN(C(=O)C2(c3ccc(Cl)cc3)CC2)CC1 [Compound 154]	> 100 nM
CC[C@H]1CN(c2ncc(-c3ncc[nH]3)cc2Cl)CCN1C1CCN(C(=O)c2ccc(-n3cccn3)cc2)CC1 [Compound 102]	25 to 100 nM
CC[C@H]1CN(c2ncc(-c3ncc[nH]3)cc2Cl)CCN1C1CCN([C@H](C(=O)OC)c2ccc(Cl)cc2)CC1 [Compound 133]	> 100 nM
CC[C@H]1CN(c2ncc(-c3ncc[nH]3)cc2Cl)CCN1C1CCN(CCCCc2ccc(Cl)cc2)CC1 [Compound 103]	25 to 100 nM
CC[C@H]1CN(c2ncc(-c3ncc[nH]3)cc2Cl)CCN1C1CCN(C(=O)c2ccc(-n3ccc(C(F)(F)F)n3)cc2)CC1 [Compound 157]	> 100 nM
CC[C@H]1CN(c2ncc(-c3ncc[nH]3)cc2Cl)CCN1C1CCN(C(C)c2ccc(N3CCOCC3)cc2)CC1 (stereo partly shown) [Compound 139]	> 100 nM
CC[C@H]1CN(c2ncc(-c3noc(=O)[nH]3)cc2Cl)CCN1C1CCN(Cc2ccc(Cl)cc2F)CC1 [Compound 160]	> 100 nM
CC[C@H]1CN(c2ncc(-c3ncc[nH]3)cc2Cl)CCN1C1CCN(Cc2ccc(C#CC(C)(C)NS(N)(=O)=O)cc2)CC1 [Compound 114]	25 to 100 nM
CC[C@H]1CN(c2ncc(-c3nccn3S(C)(=O)=O)cc2Cl)CCN1C1CCN(Cc2ccc(Cl)cc2F)CC1 [Compound 121]	25 to 100 nM
CC[C@H]1CN(c2ncc(-c3ncon3)cc2Cl)CCN1C1CCN(Cc2ccc(Cl)cc2F)CC1 [Compound 144]	> 100 nM
CC[C@H]1CN(c2ncc(-c3nc(C(O)C(F)(F)F)c[nH]3)cc2Cl)CCN1C1CCN(C(=O)c2ccc(Cl)cc2)CC1 (stereo partly shown) [Compound 125]	25 to 100 nM
CC[C@H]1CN(c2ncc(-c3cncn3C)cc2Cl)CCN1C1CCN(Cc2ccc(Cl)cc2)CC1 [Compound 115]	25 to 100 nM
CC[C@H]1CN(c2ncc(-c3nccn3C)cc2Cl)CCN1C1CCN(Cc2ccc(Cl)cc2F)CC1 [Compound 122]	25 to 100 nM
CC[C@H]1CN(c2ncc(-c3ncc[nH]3)cc2Cl)CCN1C1CCN([C@H](C(=O)OC)c2ccc(Br)cc2)CC1 [Compound 127]	25 to 100 nM
CC[C@H]1CN(c2ncc(-c3ncc[nH]3)cc2Cl)CCN1C1CCN(C(=O)c2ccc(C(C)=O)cc2)CC1 [Compound 111]	25 to 100 nM
CC[C@H]1CN(c2ncc(-c3nccn3C(c3ccccc3)(c3ccccc3)c3ccccc3)cc2Cl)CCN1C1CCN(Cc2ccc(Cl)cc2F)CC1 [Compound 145]	> 100 nM
CC[C@H]1CN(c2ncc(-c3ncc[nH]3)cc2Cl)CCN1C1(C)CCN(C(CO)c2ccc(Cl)cc2)CC1 (stereo partly shown) [Compound 38]	< 25 nM
CC[C@H]1CN(c2ncc(C3=NCCN3)cc2Cl)CCN1C1CCN(C(=O)c2ccc(C#CC(C)(C)NC(=O)OC(C)(C)C)cc2)CC1 [Compound 123]	25 to 100 nM
CC[C@H]1CN(c2ncc(-c3nnco3)cc2Cl)CCN1C1CCN(C(=O)c2ccc(Br)cc2)CC1 [Compound 129]	25 to 100 nM
CC[C@H]1CN(c2ncc(C3=NCCN3C(=O)c3ccc(C#N)cc3)cc2Cl)CCN1C1CCN(C(=O)c2ccc(C#N)cc2)CC1 [Compound 161]	> 100 nM
CC[C@H]1CN(c2ncc(-c3ncc[nH]3)cc2Cl)CCN1C1CCN(Cc2ccc(C#CC(C)(C)N)cc2)CC1 [Compound 134]	> 100 nM
CCOC1(C)NN=C(c2cnc(N3CCN(C4CCN(C(=O)c5ccc(Br)cc5)CC4)[C@@H](CC)C3)c(Cl)c2)O1 (stereo partly shown) [Compound 158]	> 100 nM
CC[C@H]1CN(c2ncc(C3=NCCN3)cc2Cl)CCN1C1CCN(Cc2ccc(Cl)cc2C(=O)NCCO)CC1 [Compound 94]	< 25 nM
CC[C@H]1CN(c2ncc(-c3ncc[nH]3)cc2Cl)CCN1C1CCN([C@H](C(=O)NC)c2ccc(Cl)cc2)CC1 [Compound 166]	> 100 nM
CC[C@H]1CN(c2ncc(-c3nnc(CO)o3)cc2Cl)CCN1C1CCN(Cc2ccc(Cl)cc2F)CC1 [Compound 106]	25 to 100 nM

Now from value to molecule:

IC50	Compound
< 25 nM	CC[C@H]1CN(c2ncc(C3=NC(C)CN3)cc2Cl)CCN1C1CCN(C(=O)c2ccc(Cl)cc2N)CC1 (stereo partly shown) [Compound 45]
< 25 nM	Fc1cc(Cl)ccc1CN1CCC(N2CCN(c3ncc(-c4ncc[nH]4)cc3Cl)CC2C2CC2)CC1 (stereo not shown) [Compound 77]
< 25 nM	CC[C@H]1CN(c2ncc(-c3ncc[nH]3)cc2Cl)CCN1C1CCN([C@@H](C(=O)OC)c2ccc(Br)cc2)CC1 [Compound 40]
< 25 nM	C[C@@H]1CN(C2CCN(Cc3ccc(Cl)cc3F)CC2)[C@@H](C)CN1c1ncc(-c2ncc[nH]2)cc1Cl [Compound 79]
< 25 nM	CC[C@H]1CN(c2ncc(-c3ncc[nH]3)cc2Cl)CCN1C1CCN(Cc2ccc(Cl)cc2-c2ncc[nH]2)CC1 [Compound 28]
< 25 nM	CC[C@H]1CN(c2ncc(-c3ncc[nH]3)cc2Cl)CCN1C1CCN(C(=O)c2ccc(-n3cccc3)nc2)CC1 [Compound 81]
< 25 nM	CC[C@H]1CN(c2ncc(-c3ncc[nH]3)cc2Cl)CCN1C1CCN([C@@H](C(=O)OC)c2ccc(Cl)cc2)CC1 [Compound 35]
< 25 nM	CC[C@H]1CN(c2ncc(-c3ncc[nH]3)cc2Cl)CCN1C1CCN([C@H](CO)c2ccc(Cl)cc2)CC1 [Compound 90]
< 25 nM	CC[C@H]1CN(c2ncc(-c3ncc[nH]3)cc2Cl)CCN1C1CCN(C(C)c2ccc(Cl)cc2)CC1 (stereo partly shown) [Compound 8]
< 25 nM	CC[C@H]1CN(c2ncc(-c3ncc[nH]3)cc2Cl)CCN1C1CCN(Cc2ccc(-c3csnn3)cc2)CC1 [Compound 22]
< 25 nM	CC[C@H]1CN(c2ncc(C3=NCCN3)cc2Cl)CCN1C1CCN(C(CO)c2ccc(Cl)cc2)CC1 (stereo partly shown) [Compound 15]
< 25 nM	CC[C@H]1CN(c2ncc(-c3ncc[nH]3)cc2Cl)CCN1C1CCN(Cc2ccc(C#CCOC)cc2)CC1 [Compound 14]
< 25 nM	CC[C@H]1CN(c2ncc(-c3ncc[nH]3)cc2Cl)CCN1C1CCN(Cc2ccc(Cl)cc2-c2ncon2)CC1 [Compound 48]
< 25 nM	CC[C@H]1CN(c2ncc(C3=NCCN3)cc2Cl)CCN1C1CCN(C(=O)c2ccc(Cl)cc2)CC1 [Compound 58]
< 25 nM	CC[C@H]1CN(c2ncc(-c3ncc[nH]3)cc2Cl)CCN1C1CCN(C(=O)c2ccc(C#N)cc2)CC1 [Compound 74]
< 25 nM	CC[C@H]1CN(c2ncc(-c3nnc(N)o3)cc2C(F)(F)F)[C@H](C)CN1C1CCN(Cc2ccc(OC(F)(F)F)cc2)CC1 [Compound 175]
< 25 nM	CC[C@H]1CN(c2ncc(C3=NCCN3)cc2Cl)CCN1C1CCN(C(C(=O)OC)c2ccc(Cl)cc2)CC1 (stereo partly shown) [Compound 63]
< 25 nM	CCOC(CNC(=N)c1cc(Cl)ccc1CN1CCC(N2CCN(c3ncc(-c4ncc[nH]4)cc3Cl)C[C@@H]2CC)CC1)OCC [Compound 21]
< 25 nM	CC[C@H]1CN(c2ncc(C3=NCCN3)cc2Cl)CCN1C1CCN(C(=O)c2ccc(Cl)cc2C(N)=NO)CC1 [Compound 93]
< 25 nM	CC[C@H]1CN(c2ncc(-c3ncc[nH]3)cc2Cl)CCN1C1CCN(C(=O)c2ccc(C(=O)OC)cc2)CC1 [Compound 71]
< 25 nM	CC[C@H]1CN(c2ncc(-c3ncc[nH]3)cc2Cl)CCN1C1CCN(Cc2ccc(C#CCN(C)C)cc2)CC1 [Compound 100]

— patent US7417045B2, “Heterocyclic substituted pyridine or phenyl compounds with CXCR3 antagonist activity” (Schering Corporation, priority 2005, dated 2008)
